Among the data in BindingDB's records for doi:10.1021/bi020016x (Weizmann Institute of Science, 2002) are Ki values, retold here.

The target in experiment [1] is Acetylcholinesterase (Tetronarce californica, UniProt P04058). Description: Enzyme Inhibition Assay. Conditions: pH 7.5; 25 °C. As to the method: (§1) The cholinesterase assays were performed using colorimetric method reported by Ellman. Enzyme activity was determined by measuring the absorbance at 412 nm for 2 min, relative to the drug-free control. Triplicate measurements were carried out at a total of 8 drug concentrations. The IC50 values were determined from a plot of percentage of inhibition vs -log [drug].
Chain of Acetylcholinesterase (Tetronarce californica, UniProt P04058) (P04058 whole entry): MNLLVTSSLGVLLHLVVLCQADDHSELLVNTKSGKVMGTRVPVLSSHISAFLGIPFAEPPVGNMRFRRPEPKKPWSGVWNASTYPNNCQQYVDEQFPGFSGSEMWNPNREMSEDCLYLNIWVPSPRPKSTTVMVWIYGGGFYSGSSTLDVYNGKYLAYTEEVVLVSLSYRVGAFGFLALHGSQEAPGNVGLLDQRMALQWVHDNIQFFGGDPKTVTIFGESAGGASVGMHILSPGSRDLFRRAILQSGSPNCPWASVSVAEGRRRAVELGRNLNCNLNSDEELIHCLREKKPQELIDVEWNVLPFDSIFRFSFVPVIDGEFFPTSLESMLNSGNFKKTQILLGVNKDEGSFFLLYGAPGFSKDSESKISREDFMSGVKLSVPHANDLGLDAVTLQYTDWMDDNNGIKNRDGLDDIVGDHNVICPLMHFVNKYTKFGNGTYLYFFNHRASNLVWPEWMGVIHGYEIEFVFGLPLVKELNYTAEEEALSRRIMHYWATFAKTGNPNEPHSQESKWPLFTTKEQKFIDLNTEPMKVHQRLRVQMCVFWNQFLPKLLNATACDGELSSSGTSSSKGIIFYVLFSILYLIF

Experiment [2] addresses Acetylcholinesterase (Homo sapiens, UniProt P22303). Description: Enzyme Inhibition Assay. Conditions: pH 7.5; 25 °C. Here is the method:
as §1

Chain of Acetylcholinesterase (Homo sapiens, UniProt P22303) (P22303 whole entry): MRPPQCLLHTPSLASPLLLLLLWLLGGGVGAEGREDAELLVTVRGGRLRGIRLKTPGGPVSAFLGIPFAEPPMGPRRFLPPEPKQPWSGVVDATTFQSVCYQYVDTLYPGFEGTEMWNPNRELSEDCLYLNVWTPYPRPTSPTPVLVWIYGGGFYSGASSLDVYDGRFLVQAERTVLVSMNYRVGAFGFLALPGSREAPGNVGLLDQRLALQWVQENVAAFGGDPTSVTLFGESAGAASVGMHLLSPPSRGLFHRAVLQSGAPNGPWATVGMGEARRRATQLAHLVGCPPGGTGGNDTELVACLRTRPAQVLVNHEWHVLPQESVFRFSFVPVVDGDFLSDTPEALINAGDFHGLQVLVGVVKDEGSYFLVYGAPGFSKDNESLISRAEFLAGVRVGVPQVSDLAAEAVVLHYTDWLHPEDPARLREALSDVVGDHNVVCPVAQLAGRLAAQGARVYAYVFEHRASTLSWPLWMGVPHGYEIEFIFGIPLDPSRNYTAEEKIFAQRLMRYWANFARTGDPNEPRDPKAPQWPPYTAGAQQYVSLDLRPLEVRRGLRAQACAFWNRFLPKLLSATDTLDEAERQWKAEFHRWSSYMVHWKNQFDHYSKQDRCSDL

For the compound `C[C@@H](c1cccc(O)c1)N(C)C` [3-[1-(dimethylamino)ethyl]phenol], the figures for the Ki at Acetylcholinesterase [1] and at Acetylcholinesterase [2] were 0.7 µM and 33 µM, respectively.
